PubChem BioAssay AID1963441 (Molecular Pharmacology Branch, DTP, NCI, 2024)
Each block holds one compound with its values, some of them ahead of it.

Tested on: NCI-H1876 complex spheroid growth, % test/control
Assay: Anticancer human tumor NCI-H1876 cell line growth inhibition [Asc];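 also: compound exposure lasted 7 days starting three days after seeding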;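 as to viability, T/C: 100% = DMSO vehicle control wells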
Details: for IC50: curve of first compound; for viability, T/C: stronger effect = lower value
In short: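 Tumor cells were grown as complex spheroids with human endothelial cells (HUVEC) and human mesenchymal stem cells as stroma. Agents were tested alone and in combination, in half-log steps down from the clinical Cmax, or from 10 microM where Cmax was unknown.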

[1] = second compound 0.0316 µM, first compound 0.0316 µM
[2] = second compound 0.0316 µM, first compound 0.1 µM
[3] = second compound 0.0316 µM, first compound 0.316 µM
[4] = second compound 0.0316 µM, first compound 1 µM
[5] = second compound 0.1 µM, first compound 0.0316 µM
[6] = second compound 0.1 µM, first compound 0.1 µM
[7] = second compound 0.1 µM, first compound 0.316 µM
[8] = second compound 0.1 µM, first compound 1 µM
[9] = second compound 0.316 µM, first compound 0.0316 µM
[10] = second compound 0.316 µM, first compound 0.1 µM
[11] = second compound 0.316 µM, first compound 0.316 µM
[12] = second compound 0.316 µM, first compound 1 µM
[13] = second compound 1 µM, first compound 0.0316 µM
[14] = second compound 1 µM, first compound 0.1 µM
[15] = second compound 1 µM, first compound 0.316 µM
[16] = second compound 1 µM, first compound 1 µM
[17] = second compound 3.16 µM, first compound 0.0316 µM
[18] = second compound 3.16 µM, first compound 0.1 µM
[19] = second compound 3.16 µM, first compound 0.316 µM
[20] = second compound 3.16 µM, first compound 1 µM
[21] = second compound 10 µM, first compound 0.0316 µM
[22] = second compound 10 µM, first compound 0.1 µM
[23] = second compound 10 µM, first compound 0.316 µM
[24] = second compound 10 µM, first compound 1 µM

IC50 (second compound 0.00949 µM): > 0.1 µM
IC50 (second compound 0.03 µM): > 0.1 µM
IC50 (second compound 0.0949 µM): > 0.1 µM
IC50 (second compound 0.3 µM): > 0.1 µM
IC50 (second compound 0.949 µM): > 0.1 µM
IC50 (second compound 3 µM): > 0.1 µM
Compound: Cn1ncnc1[C@H]1c2n[nH]c(=O)c3cc(F)cc(c23)N[C@@H]1c1ccc(F)cc1 + CCN1C(C(=O)NC23CCC(C(=O)O)(CC2)CC3)C(c2cccc(Cl)c2F)C2(C(=O)Nc3cc(Cl)ccc32)C12CCCCC2
viability, T/C (second compound 0.00949 µM, first compound 0.000316 µM): 123%
viability, T/C (second compound 0.00949 µM, first compound 0.001 µM): 89.9%
viability, T/C (second compound 0.00949 µM, first compound 0.00316 µM): 113%
viability, T/C (second compound 0.00949 µM, first compound 0.01 µM): 102%
viability, T/C (second compound 0.00949 µM, first compound 0.0316 µM): 100%
viability, T/C (second compound 0.00949 µM, first compound 0.1 µM): 91.6%
viability, T/C (second compound 0.03 µM, first compound 0.000316 µM): 100%
viability, T/C (second compound 0.03 µM, first compound 0.001 µM): 102%
viability, T/C (second compound 0.03 µM, first compound 0.00316 µM): 107%
viability, T/C (second compound 0.03 µM, first compound 0.01 µM): 92.6%
viability, T/C (second compound 0.03 µM, first compound 0.0316 µM): 106%
viability, T/C (second compound 0.03 µM, first compound 0.1 µM): 95.4%
viability, T/C (second compound 0.0949 µM, first compound 0.000316 µM): 101%
viability, T/C (second compound 0.0949 µM, first compound 0.001 µM): 99.4%
viability, T/C (second compound 0.0949 µM, first compound 0.00316 µM): 111%
viability, T/C (second compound 0.0949 µM, first compound 0.01 µM): 104%
viability, T/C (second compound 0.0949 µM, first compound 0.0316 µM): 113%
viability, T/C (second compound 0.0949 µM, first compound 0.1 µM): 89%
viability, T/C (second compound 0.3 µM, first compound 0.000316 µM): 103%
viability, T/C (second compound 0.3 µM, first compound 0.001 µM): 120%
viability, T/C (second compound 0.3 µM, first compound 0.00316 µM): 111%
viability, T/C (second compound 0.3 µM, first compound 0.01 µM): 114%
viability, T/C (second compound 0.3 µM, first compound 0.0316 µM): 110%
viability, T/C (second compound 0.3 µM, first compound 0.1 µM): 98.3%
viability, T/C (second compound 0.949 µM, first compound 0.000316 µM): 118%
viability, T/C (second compound 0.949 µM, first compound 0.001 µM): 134%
viability, T/C (second compound 0.949 µM, first compound 0.00316 µM): 117%
viability, T/C (second compound 0.949 µM, first compound 0.01 µM): 134%
viability, T/C (second compound 0.949 µM, first compound 0.0316 µM): 123%
viability, T/C (second compound 0.949 µM, first compound 0.1 µM): 91.6%
viability, T/C (second compound 3 µM, first compound 0.000316 µM): 103%
viability, T/C (second compound 3 µM, first compound 0.001 µM): 105%
viability, T/C (second compound 3 µM, first compound 0.00316 µM): 81.3%
viability, T/C (second compound 3 µM, first compound 0.01 µM): 95.5%
viability, T/C (second compound 3 µM, first compound 0.0316 µM): 95.2%
viability, T/C (second compound 3 µM, first compound 0.1 µM): 95.5%

IC50 (second compound 0.0316 µM): > 1 µM
IC50 (second compound 0.1 µM): > 1 µM
IC50 (second compound 0.316 µM): > 1 µM
IC50 (second compound 1 µM): > 1 µM
IC50 (second compound 3.16 µM): > 1 µM
IC50 (second compound 10 µM): > 1 µM
Compound: CNC(C)C(=O)NC1CN(S(=O)(=O)c2cccc(S(=O)(=O)N3CCC4CCC(C(=O)NC(c5ccccc5)c5ccccc5)N4C(=O)C(NC(=O)C(C)NC)C3)c2)CCC2CCC(C(=O)NC(c3ccccc3)c3ccccc3)N2C1=O (stereo unspecified) + Cc1c(S(C)(=O)=O)c(-c2cc(F)cc(N3CCN(c4ccc(NS(=O)(=O)c5ccc(NC(CCN6CCC(C(=O)OCCCP(=O)(O)O)CC6)CSc6ccccc6)c(S(=O)(=O)C(F)(F)F)c5)cc4)CC3)c2)c(-c2ccc(Cl)cc2)n1C(C)C
viability, T/C (second compound 0.0316 µM, first compound 0.00316 µM): 95.1%
viability, T/C (second compound 0.0316 µM, first compound 0.01 µM): 96.4%
viability, T/C [1]: 98%
viability, T/C [2]: 97.8%
viability, T/C [3]: 103%
viability, T/C [4]: 103%
viability, T/C (second compound 0.1 µM, first compound 0.00316 µM): 91.3%
viability, T/C (second compound 0.1 µM, first compound 0.01 µM): 96.2%
viability, T/C [5]: 95%
viability, T/C [6]: 98.8%
viability, T/C [7]: 105%
viability, T/C [8]: 98.7%
viability, T/C (second compound 0.316 µM, first compound 0.00316 µM): 101%
viability, T/C (second compound 0.316 µM, first compound 0.01 µM): 102%
viability, T/C [9]: 97.2%
viability, T/C [10]: 97.3%
viability, T/C [11]: 103%
viability, T/C [12]: 104%
viability, T/C (second compound 1 µM, first compound 0.00316 µM): 94%
viability, T/C (second compound 1 µM, first compound 0.01 µM): 91.6%
viability, T/C [13]: 91.6%
viability, T/C [14]: 100%
viability, T/C [15]: 112%
viability, T/C [16]: 92.7%
viability, T/C (second compound 3.16 µM, first compound 0.00316 µM): 99.9%
viability, T/C (second compound 3.16 µM, first compound 0.01 µM): 87.2%
viability, T/C [17]: 96.1%
viability, T/C [18]: 88.1%
viability, T/C [19]: 101%
viability, T/C [20]: 91.8%
viability, T/C (second compound 10 µM, first compound 0.00316 µM): 97.4%
viability, T/C (second compound 10 µM, first compound 0.01 µM): 97.4%
viability, T/C [21]: 88.3%
viability, T/C [22]: 110%
viability, T/C [23]: 102%
viability, T/C [24]: 101%

IC50 (second compound 0.0316 µM): > 10 µM
IC50 (second compound 0.1 µM): > 10 µM
IC50 (second compound 0.316 µM): > 10 µM
IC50 (second compound 1 µM): > 10 µM
IC50 (second compound 3.16 µM): > 10 µM
IC50 (second compound 10 µM): > 10 µM
Compound: C#Cc1c(F)ccc2cc(O)cc(-c3ncc4c(N5CC6CCC(C5)N6)nc(OCC56CCCN5CC(F)C6)nc4c3F)c12 (stereo unspecified) + Cc1c(S(C)(=O)=O)c(-c2cc(F)cc(N3CCN(c4ccc(NS(=O)(=O)c5ccc(NC(CCN6CCC(C(=O)OCCCP(=O)(O)O)CC6)CSc6ccccc6)c(S(=O)(=O)C(F)(F)F)c5)cc4)CC3)c2)c(-c2ccc(Cl)cc2)n1C(C)C
viability, T/C [1]: 98.7%
viability, T/C [2]: 84.9%
viability, T/C [3]: 108%
viability, T/C [4]: 91.2%
viability, T/C (second compound 0.0316 µM, first compound 3.16 µM): 96.8%
viability, T/C (second compound 0.0316 µM, first compound 10 µM): 92.9%
viability, T/C [5]: 92.2%
viability, T/C [6]: 101%
viability, T/C [7]: 99.3%
viability, T/C [8]: 83.1%
viability, T/C (second compound 0.1 µM, first compound 3.16 µM): 90.6%
viability, T/C (second compound 0.1 µM, first compound 10 µM): 88%
viability, T/C [9]: 106%
viability, T/C [10]: 90.5%
viability, T/C [11]: 85.5%
viability, T/C [12]: 90.7%
viability, T/C (second compound 0.316 µM, first compound 3.16 µM): 86.5%
viability, T/C (second compound 0.316 µM, first compound 10 µM): 86.7%
viability, T/C [13]: 90%
viability, T/C [14]: 97.8%
viability, T/C [15]: 102%
viability, T/C [16]: 92%
viability, T/C (second compound 1 µM, first compound 3.16 µM): 88.2%
viability, T/C (second compound 1 µM, first compound 10 µM): 73.5%
viability, T/C [17]: 101%
viability, T/C [18]: 108%
viability, T/C [19]: 89.5%
viability, T/C [20]: 87.4%
viability, T/C (second compound 3.16 µM, first compound 3.16 µM): 87.3%
viability, T/C (second compound 3.16 µM, first compound 10 µM): 74.7%
viability, T/C [21]: 93.2%
viability, T/C [22]: 99.4%
viability, T/C [23]: 109%
viability, T/C [24]: 93.6%
viability, T/C (second compound 10 µM, first compound 3.16 µM): 95.8%
viability, T/C (second compound 10 µM, first compound 10 µM): 77%
